The text below walks through data of patent publication EP4644383A1 (Jiangsu Yahong Meditech Co., Ltd., priority 2022, dated 2024).

The target of one assay is T1, FGFR3 (Homo sapiens, UniProt P22607).
T1 construct: FGFR3's cytoplasmic domain [436-806 (terminal) amino acids]; purchased Carna 08-135
T1 sequence (P22607 436-806): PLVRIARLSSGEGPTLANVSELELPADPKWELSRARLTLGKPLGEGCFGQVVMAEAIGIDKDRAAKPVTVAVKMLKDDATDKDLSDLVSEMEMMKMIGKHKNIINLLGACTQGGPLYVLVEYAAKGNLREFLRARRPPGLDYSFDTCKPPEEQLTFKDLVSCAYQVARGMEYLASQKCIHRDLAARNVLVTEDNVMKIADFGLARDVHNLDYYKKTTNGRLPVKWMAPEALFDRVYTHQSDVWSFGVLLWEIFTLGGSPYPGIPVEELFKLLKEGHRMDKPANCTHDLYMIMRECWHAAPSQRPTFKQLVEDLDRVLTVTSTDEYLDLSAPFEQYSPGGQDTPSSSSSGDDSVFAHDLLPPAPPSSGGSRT
In words: FGFR3 kinase activity inhibition assay (LanthaScreen TR-FRET). The class given is biochemical.
Details: not given
Here is the method:
PV3552) and 10 mM EDTA were added to quench the kinase reaction, and incubated at 22°C for 60 minutes. • ⑤ The reaction was measured using a PerkinElmer EnVision multimode plate reader through TR-FRET dual wavelength detection. • 1. The RFU values were copied from the Envision program. • 2. The ratio of RFU 520nm/RFU 495nm was calculated. • 3. The value of the ratio was converted to a percentage inhibition value. % Inhibition = (max-data)/(max-min) × 100 [formula] "Min" represents the ratio of the control without enzyme, "max" represents the ratio of the DMSO control, and "data" represents the ratio of the compounds in wells with different concentrations. […] "Top" refers to the maximum response, "Bottom" refers to the minimum response, and "HillSlope" refers to the slope of the curve. According to the same method as that in the FGFR1 kinase activity inhibition assay, the inhibitory activities against FGFR2, FGFR3 and FGFR4 were tested using FGFR2's cytoplasmic domain [399-821 (terminal) amino acids] (Carna: 08-134), FGFR3's cytoplasmic domain [436-806 (terminal) amino acids] (Carna: 08-135) and FGFR4's cytoplasmic domain [460-802 (terminal) amino acids] (Carna: 08-136), respectively. […]
`C[C@@H](Oc1ccc2[nH]nc(-c3ccc(N4CCOCC4)nc3)c2n1)c1c(Cl)cncc1Cl` [Example 33, (R)-4-(5-(5-(1-(3,5-dichloropyridin-4-yl)ethoxy)-1H-pyrazolo[4,3-b]pyridin-3-yl)pyridin-2-yl)morpholine] showed a half-maximal inhibitory concentration (IC50) of 10 to 100 nM. On to `C[C@@H](Oc1ccc2[nH]nc(-c3cnn(CC(C)(C)O)c3)c2n1)c1c(Cl)cncc1Cl` [Example 38, (R)-1-(4-(5-(1-(3,5-dichloropyridin-4-yl)ethoxy)-1H-pyrazolo[4,3-b]pyridin-3-yl)-1H-pyrazol-1-yl)-2-methylpropan-2-ol], for which the IC50 fell in the range of 10 to 100 nM.

The same assay, now with this note: FGFR3 kinase, TR-FRET; read-out: IC50 (nM) FGFR3.
In the case of `CC(C)c1cc(O[C@H](C)c2c(Cl)cncc2Cl)cc2c(-c3cnn(C)c3)n[nH]c12` [Example 6, (R)-5-(1-(3,5-dichloropyridin-4-yl)ethoxy)-7-isopropyl-3-(1-methyl-1H-pyrazol-4-yl)-1H-indazole], the IC50 is greater than 100 nM. Take `Cc1c[nH]c(-c2n[nH]c3c(C)cc(O[C@H](C)c4c(Cl)cncc4Cl)cc23)n1` [Example 9, (R)-5-(1-(3,5-dichloropyridin-4-yl)ethoxy)-7-methyl-3-(4-methyl-1H-imidazol-2-yl)-1H-indazole]: the IC50 was greater than 100 nM. Regarding `C[C@@H](Oc1ccc2[nH]nc(-c3cnn4ccccc34)c2n1)c1c(Cl)cncc1Cl` [Example 43, (R)-5-(1-(3,5-dichloropyridin-4-yl)ethoxy)-3-(pyrazolo[1,5-a]pyridin-3-yl)-1H-pyrazolo[4,3-b]pyridine], the IC50 was greater than 100 nM. As for `C[C@@H](Oc1ccc2[nH]nc(-c3cnn4c3CCCC4)c2n1)c1c(Cl)cncc1Cl` [Example 44, (R)-5-(1-(3,5-dichloropyridin-4-yl)ethoxy)-3-(4,5,6,7-tetrahydropyrazolo[1,5-a]pyridin-3-yl)-1H-pyrazolo[4,3-b]pyridine], the IC50 was greater than 100 nM. On to `CC(C)n1cc(-c2n[nH]c3ccc(O[C@H](C)c4c(Cl)cncc4Cl)nc23)cn1` [Example 47, (R)-5-(1-(3,5-dichloropyridin-4-yl)ethoxy)-3-(1-isopropyl-1H-pyrazol-4-yl)-1H-pyrazolo[4,3-b]pyridine], for which the IC50 lay in the range of 10 to 100 nM. Consider `CC(C)Cn1cc(-c2n[nH]c3ccc(O[C@H](C)c4c(Cl)cncc4Cl)nc23)cn1` [Example 51, (R)-5-(1-(3,5-dichloropyridin-4-yl)ethoxy)-3-(1-isobutyl-1H-pyrazol-4-yl)-1H-pyrazolo[4,3-b]pyridine], for which the IC50 is greater than 100 nM.

For the compound `Cn1cc(-c2n[nH]c3ccc(C(=O)NCC(C)(C)O)cc23)cn1` [Example 67, N-(2-hydroxy-2-methylpropyl)-3-(1-methyl-1H-pyrazol-4-yl)-1H-indazole-5-carboxamide], the IC50 is greater than 100 nM. The same measure, in the same setting: the figure for `Cn1cc(-c2n[nH]c3ccc(C(=O)NCC4CNC4)cc23)cn1` [Example 68, N-(azetidin-3-ylmethyl)-3-(1-methyl-1H-pyrazol-4-yl)-1H-indazole-5-carboxamide] is greater than 100 nM; for `Cn1cc(-c2n[nH]c3ccc(C(=O)NCC4CCCNC4)cc23)cn1` (stereo not shown) [Example 69, 3-(1-methyl-1H-pyrazol-4-yl)-N-(piperidin-3-ylmethyl)-1H-indazole-5-carboxamide] it is greater than 100 nM; for `CNCCNC(=O)c1cc(F)c2[nH]nc(-c3cnn(CCN4CCOCC4)c3)c2c1` [Example 70, 7-fluoro-N-(2-(methylamino)ethyl)-3-(1-(2-morpholinoethyl)-1H-pyrazol-4-yl)-1H-indazole-5-carboxamide] it is greater than 100 nM.

On to `CNCCNC(=O)c1cc2c(-c3cnn(C)c3)n[nH]c2cc1-c1cc(OC)cc(OC)c1` [Example 71, 6-(3,5-dimethoxyphenyl)-3-(1-methyl-1H-pyrazol-4-yl)-N-(2-(methylamino)ethyl) -1H-indazole-5-carboxamide], for which the IC50 is greater than 100 nM. Still for that read-out and setting: with `CNCCNC(=O)c1cc2c(-c3cnn(C)c3)n[nH]c2cc1OC` [Example 72, 6-methoxy-3-(1-methyl-1H-pyrazol-4-yl)-N-(2-(methylamino)ethyl)-1H-indazole-5-carboxamide] the figure was greater than 100 nM; with `CNCCNC(=O)c1cc2c(-c3cnn(C)c3)n[nH]c2cc1F` [Example 73], greater than 100 nM. Same read-out and setting: with `CNCCn1cc(-c2ccc3[nH]nc(-c4nc(C)c[nH]4)c3c2)nn1` [Example 75, N-methyl-2-(4-(3-(4-methyl-1H-imidazol-2-yl)-1H-indazol-5-yl)-1H-1,2,3-triazol-1-yl)ethan-1-amine] the figure was greater than 100 nM; with `Cc1cccc(C)c1NC(=O)c1ccc2[nH]nc(-c3cnn(C)c3)c2c1` [Example 77, N-(2,6-dimethylphenyl)-3-(1-methyl-1H-pyrazol-4-yl)-1H-indazole-5-carboxamide], greater than 100 nM. On the same count and under the same terms, the figure for `Cn1cc(-c2n[nH]c3ccc(C(=O)NCc4c(Cl)cncc4Cl)cc23)cn1` [Example 78, N-((3,5-dichloropyridin-4-yl)methyl)-3-(1-methyl-1H-pyrazol-4-yl)-1H-indazole-5-carboxamide] is greater than 100 nM; for `Cc1c[nH]c(-c2n[nH]c3ccc(C(=O)NCC4CCNC4)cc23)n1` (stereo not shown) [Example 79, 3-(4-methyl-1H-imidazol-2-yl)-N-(pyrrolidin-3-ylmethyl)-1H-indazole-5-carboxamide] it is greater than 100 nM. Take `Cc1c[nH]c(-c2n[nH]c3ccc(C(=O)NCc4ncc[nH]4)cc23)n1` [Example 81]: the IC50 is greater than 100 nM. Same read-out and setting: with `CNCCNC(=O)c1ccc2[nH]nc(-c3nc(-c4ccccc4)c[nH]3)c2c1` [Example 82, N-(2-(methylamino)ethyl)-3-(4-phenyl-1H-imidazol-2-yl)-1H-indazole-5-carboxamide] the figure was greater than 100 nM. For the compound `CNCCNC(=O)c1ccc2[nH]nc(-c3nc4c([nH]3)CN(C)C4)c2c1` [Example 83, 3-(5-methyl-1,4,5,6-tetrahydropyrrolo[3,4-d]imidazol-2-yl)-N-(2-(methylamino)ethyl)-1H-indazole-5-carboxamide], the IC50 is greater than 100 nM.

With `CNCCNC(=O)c1ccc2[nH]nc(-c3nc4cc(N5CCN(C)CC5)ccc4[nH]3)c2c1` [Example 84, N-(2-(methylamino)ethyl)-3-(5-(4-methylpiperazin-1-yl)-1H-benzo[d]imidazol-2-yl)-1H-indazole-5-carboxamide], the IC50 is greater than 100 nM. Turning to `CC(Oc1ccc2[nH]nc(-c3cnn(C)c3)c2c1)C1CCOCC1` (stereo not shown) [Example 86, 3-(1-methyl-1H-pyrazol-4-yl)-5-(1-(tetrahydro-2H-pyran-4-yl)ethoxy)-1H-indazole], the IC50 was greater than 100 nM.

In the case of `CC(Oc1ccc2[nH]nc(-c3cnn(C)c3)c2c1)c1ccn2ccnc2c1` (stereo not shown) [Example 89, 5-(1-(imidazo[1,2-a]pyridine-7-yl)ethoxy)-3-(1-methyl-1H-pyrazol-4-yl)-1H-indazole], the IC50 was greater than 100 nM. As to `Cn1cc(-c2n[nH]c3ccc(OC4CCCc5cnccc54)cc23)cn1` (stereo not shown) [Example 90, 5-((3-(1-methyl-1H-pyrazol-4-yl)-1H-indazol-5-yl)oxy)-5,6,7,8-tetrahydroisoquin oline], the IC50 was greater than 100 nM. In the case of `CC(Oc1ccc2[nH]nc(-c3cnn(C)c3)c2c1)c1nccs1` (stereo not shown) [Example 91, 2-(1-((3-(1-methyl-1H-pyrazol-4-yl)-1H-indazol-5-yl)oxy)ethyl)thiazole], the IC50 was 10 to 100 nM.

The assay is the same for the next values; noted with them: read-out: IC50 (nM) FGFR3; FGFR3 kinase, TR-FRET.
With `CNCCN(C)C(=O)c1ccc2[nH]nc(-c3cnn(C)c3)c2c1` [Example 66, N-methyl-3-(1-methyl-1H-pyrazol-4-yl)-N-(2-(methylamino)ethyl) -1H-indazole-5-carboxamide], the IC50 is greater than 100 nM.

As a reminder, the IC50 is the concentration needed to halve the response being measured.
